Earlier results, collected in patent US8524751B2, “4-oxadiazol-2-YL-indazoles as inhibitors of P13 kinases” (priority 2009, dated 2013).
Read-outs that look alike come from different tables or passages of the source.

Legend:
Class I PI3-kinases = details: each of the Class I PI3-kinases

| SMILES | IC50 (CK2 protein kinase) | IC50 (Class I PI3-kinases; Fruman et al. 1998, read-out: IC50 values against each of these PI3-kinases) | IC50 (Class I PI3-kinases; read-out: IC50 values against each of the various Class I PI3-kinases) |
| --- | --- | --- | --- |
| O=c1cc(N2CCOCC2)oc2c(-c3ccccc3)cccc12 [LY294002] | 5 to 10 µM | 15 to 20 µM | – |
| COC[C@H]1OC(=O)c2coc3c2[C@@]1(C)C1=C(C3=O)[C@@H]2CCC(=O)[C@@]2(C)C[C@H]1OC(C)=O [wortmannin] | – | – | 0.001 to 0.01 µM |
